pIC50: −log10 of the molar value.
Target: T1, porcine gastric H+/K+-ATPase (Sus scrofa, UniProt P19156)
T1 construct: The gastric vesicles were collected from interface on 0.25 M sucrose layer containing 7% Ficoll; from tissue; host or cells: mucous membrane of fresh porcine stomachs (gastric vesicles)
Assay: Ion-leaky porcine gastric H+/K+-ATPase inhibition
Assay type: biochemical
Details: ion-leaky lyophilized porcine gastric vesicles, 5 mM KCl, pH 6.4, 37° C., 30 minutes; read-out: IC50 values of the inhibitory activity
Protocol: The porcine gastric vesicles for Porcine gastric H^+/K^+-ATPase inhibition assays were prepared from mucous membrane in fresh porcine stomachs by homogenization with a tight-fitted polytetrafluoroethylene (Teflone®) homogenizer in 0.25 M sucrose at 4° C. The crude pellet was removed with centrifugation at 20,000 g for 30 min. Then supernatant was centrifuged at 100,000 g for 30 min. The resulting pellet was re-suspended in 0.25 M sucrose, and then subjected to density gradient centrifugation at 132,000 g for 90 min. The gastric vesicles were collected from interface on 0.25 M sucrose layer containing 7% Ficoll™ PM400 (Amersham Biosciences). This procedure was performed in a cold room.
Ion-leaky porcine gastric H^+/K^+-ATPase inhibition was measured according to the modified method described in Biochemical Pharmacology, 1988, 37, 2231-2236.
The isolated vesicles were lyophilized, and then kept in deep-freezer until use. For enzyme assay, lyophilized vesicles were reconstituted with 3 mM MgSO4 containing 40 mM Bis-tris (pH 6.4 at 37° C.).
Enzyme reaction was performed incubating 5 mM KCl, 3 mM Na2ATP, 3 mM MgSO4 and 1.0 μg of reconstituted vesicles for 30 minutes at 37° C. in a final 60 μl of reaction mixture (40 mM Bis-tris, pH 6.4) with or without the test compound. Enzyme reaction was stopped by adding 10% sodium dodecyl sulphate (SDS). Released inorganic phosphate from ATP was detected by incubation with mixture of 1 part of 35 mM ammonium molybdate tetrahydrate in 15 mM Zinc acetate hydrate and 4 parts of 10% ascorbic acid (pH 5.0), resulting in phosphomolybdate, which has optical density at 750 nm.

T1 sequence (P19156 2-1034 limits assumed): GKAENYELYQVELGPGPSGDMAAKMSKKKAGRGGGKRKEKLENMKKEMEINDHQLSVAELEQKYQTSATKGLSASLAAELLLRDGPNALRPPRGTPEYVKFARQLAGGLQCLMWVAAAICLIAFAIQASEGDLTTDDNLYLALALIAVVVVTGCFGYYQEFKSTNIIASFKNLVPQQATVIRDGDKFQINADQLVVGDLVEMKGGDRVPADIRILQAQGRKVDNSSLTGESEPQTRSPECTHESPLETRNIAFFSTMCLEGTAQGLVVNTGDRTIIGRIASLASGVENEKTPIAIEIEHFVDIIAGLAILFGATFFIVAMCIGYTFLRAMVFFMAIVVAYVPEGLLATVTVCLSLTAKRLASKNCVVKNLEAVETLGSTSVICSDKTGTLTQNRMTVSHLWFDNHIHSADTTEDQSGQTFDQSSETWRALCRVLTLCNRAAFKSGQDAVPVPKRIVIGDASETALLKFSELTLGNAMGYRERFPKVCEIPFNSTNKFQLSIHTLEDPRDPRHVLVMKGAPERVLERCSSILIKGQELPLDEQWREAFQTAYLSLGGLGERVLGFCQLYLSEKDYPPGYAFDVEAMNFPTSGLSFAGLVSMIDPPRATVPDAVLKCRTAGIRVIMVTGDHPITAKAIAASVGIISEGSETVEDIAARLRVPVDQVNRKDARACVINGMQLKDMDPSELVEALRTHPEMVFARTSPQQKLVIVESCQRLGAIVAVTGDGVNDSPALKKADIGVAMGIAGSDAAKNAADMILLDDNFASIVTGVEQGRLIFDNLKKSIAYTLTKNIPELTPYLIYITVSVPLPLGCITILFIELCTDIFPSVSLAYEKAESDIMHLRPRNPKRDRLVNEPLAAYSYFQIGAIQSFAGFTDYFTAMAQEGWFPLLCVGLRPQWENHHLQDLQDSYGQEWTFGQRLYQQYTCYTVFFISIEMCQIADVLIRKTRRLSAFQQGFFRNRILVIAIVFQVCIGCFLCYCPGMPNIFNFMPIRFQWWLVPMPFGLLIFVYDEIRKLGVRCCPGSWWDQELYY
T1 sequence (P18434 whole entry partner): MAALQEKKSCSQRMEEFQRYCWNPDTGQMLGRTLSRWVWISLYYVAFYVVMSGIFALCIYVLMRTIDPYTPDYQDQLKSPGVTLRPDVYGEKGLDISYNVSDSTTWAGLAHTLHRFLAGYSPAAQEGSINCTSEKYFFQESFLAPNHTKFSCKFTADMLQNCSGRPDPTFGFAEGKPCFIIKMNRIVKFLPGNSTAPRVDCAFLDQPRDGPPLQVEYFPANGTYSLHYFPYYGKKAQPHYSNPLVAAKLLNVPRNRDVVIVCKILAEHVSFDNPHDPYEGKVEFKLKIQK

Structure (SMILES)	pIC50
COCCn1c(C)nc2cc(C(=O)N(C)CCO)c3c(c21)OC(c1ccc(F)cc1F)CC3 (racemic) [Example 11, 8-(2,4-Difluorophenyl)-N-(2-hydroxyethyl)-1-(2-methoxyethyl)-N,2-dimethyl-1,6,7,8-tetrahydrochromeno[7,8-d]imidazole-5-carboxamide]	6.68
COCCn1c(C)nc2cc(C(=O)N3CCC3)c3c(c21)OC(c1ccccc1)CC3 (racemic) [Example 15, 5-(Azetidin-1-ylcarbonyl)-1-(2-methoxyethyl)-2-methyl-8-phenyl-1,6,7,8-tetrahydrochromeno[7,8-d]imidazole]	6.70
COCCn1c(C)nc2cc(C(=O)N(C)CCO)c3c(c21)OC(c1ccc(F)cc1F)CC3 (single isomer, unassigned; (+)) [Example 13, (+)-8-(2,4-Difluorophenyl)-N-(2-hydroxyethyl)-1-(2-methoxyethyl)-N,2-dimethyl-1,6,7,8-tetrahydrochromeno[7,8-d]imidazole-5-carboxamide]	6.47
COCCn1c(C)nc2cc(C(=O)N3CCC3)c3c(c21)OC(c1ccccc1)CC3 (single isomer, unassigned; (+)) [Example 17, (+)-5-(Azetidin-1-ylcarbonyl)-1-(2-methoxyethyl)-2-methyl-8-phenyl-1,6,7,8-tetrahydrochromeno[7,8-d]imidazole]	6.00
COCCn1c(C)nc2cc(C(=O)N(C)CCO)c3c(c21)OC(c1ccc(F)cc1F)CC3 (single isomer, unassigned; (-)) [Example 12, (−)-8-(2,4-Difluorophenyl)-N-(2-hydroxyethyl)-1-(2-methoxyethyl)-N,2-dimethyl-1,6,7,8-tetrahydrochromeno[7,8-d]imidazole-5-carboxamide]	7.05
Cc1nc2cc(C(=O)N(C)C)c3c(c2n1CCCO)OC(c1ccc(F)cc1)CC3 (centres unmarked) [Example 8, 8-(4-Fluorophenyl)-1-(3-hydroxypropyl)-N,N,2-trimethyl-1,6,7,8-tetrahydrochromeno[7,8-d]imidazole-5-carboxamide]	6.47
Cc1nc2cc(C(=O)N(C)C)c3c(c2n1Cc1ccon1)OC(c1ccc(F)cc1)CC3 (centres unmarked) [Example 9, 8-(4-Fluorophenyl)-1-(isoxazol-3-ylmethyl)-N,N,2-trimethyl-1,6,7,8-tetrahydrochromeno[7,8-d]imidazole-5-carboxamide]	6.46
COCCn1c(C)nc2cc(C(=O)N3CC(F)C3)c3c(c21)OC(c1ccccc1)CC3 (centres unmarked) [Example 14, 5-[(3-Fluoroazetidin-1-yl)carbonyl]-1-(2-methoxyethyl)-2-methyl-8-phenyl-1,6,7,8-tetrahydrochromeno[7,8-d]imidazole]	6.57

Results, then the molecule that gave them:

pIC50	Structure (SMILES)
7.01	COCCn1c(C)nc2cc(C(=O)N(C)C)c3c(c21)OC(c1ccccc1)CC3 (racemic) [Example 1, 1-(2-Methoxyethyl)-N,N,2-trimethyl-8-phenyl-1,6,7,8-tetrahydrochromeno[7,8-d]imidazole-5-carboxamide]
7.06	COCCn1c(C)nc2cc(C(=O)N(C)C)c3c(c21)OC(c1ccc(F)cc1)CC3 (racemic) [Example 5, 8-(4-Fluorophenyl)-1-(2-methoxyethyl)-N,N,2-trimethyl-1,6,7,8-tetrahydrochromeno[7,8-d]imidazole-5-carboxamide]
6.28	COCCn1c(C)nc2cc(C(=O)N(C)C)c3c(c21)OC(c1ccccc1)CC3 (single isomer, unassigned; (+)) [Example 2, (+)-1-(2-Methoxyethyl)-N,N,2-trimethyl-8-phenyl-1,6,7,8-tetrahydrochromeno[7,8-d]imidazole-5-carboxamide]
6.64	COCCn1c(C)nc2cc(C(=O)N(C)C)c3c(c21)OC(c1ccc(F)cc1)CC3 (single isomer, unassigned; (+)) [Example 6, (+)-8-(4-Fluorophenyl)-1-(2-methoxyethyl)-N,N,2-trimethyl-1,6,7,8-tetrahydrochromeno[7,8-d]imidazole-5-carboxamide]
7.17	COCCn1c(C)nc2cc(C(=O)N(C)C)c3c(c21)OC(c1ccccc1)CC3 (single isomer, unassigned; (-)) [Example 3, (−)-1-(2-Methoxyethyl)-N,N,2-trimethyl-8-phenyl-1,6,7,8-tetrahydrochromeno[7,8-d]imidazole-5-carboxamide]
7.42	COCCn1c(C)nc2cc(C(=O)N(C)C)c3c(c21)OC(c1ccc(F)cc1)CC3 (single isomer, unassigned; (-)) [Example 7, (−)-8-(4-Fluorophenyl)-1-(2-methoxyethyl)-N,N,2-trimethyl-1,6,7,8-tetrahydrochromeno[7,8-d]imidazole-5-carboxamide]
7.13	COCCn1c(C)nc2cc(C(=O)N3CCC3)c3c(c21)OC(c1ccccc1)CC3 (single isomer, unassigned; (-)) [Example 16, (−)-5-(Azetidin-1-ylcarbonyl)-1-(2-methoxyethyl)-2-methyl-8-phenyl-1,6,7,8-tetrahydrochromeno[7,8-d]imidazole]
6.72	COCCn1c(C)nc2cc(C(=O)N(C)CCO)c3c(c21)OC(c1ccccc1)CC3 (centres unmarked) [Example 4, N-(2-Hydroxyethyl)-1-(2-methoxyethyl)-N,2-dimethyl-8-phenyl-1,6,7,8-tetrahydrochromeno[7,8-d]imidazole-5-carboxamide]
7.00	[2H]C([2H])([2H])N(C(=O)c1cc2nc(C)n(CCOC)c2c2c1CCC(c1ccccc1)O2)C([2H])([2H])[2H] (centres unmarked) [Example 10, N,N-Di[^2H3]methyl-1-(2-methoxyethyl)-2-methyl-8-phenyl-1,6,7,8-tetrahydrochromeno[7,8-d]imidazole-5-carboxamide]
